Calls of active or inactive are those of the source. No cut-off for these calls is given here.

The nature of data set [1]: Inhibition of Escherichia coli GroEL expressed in NEB-5-alpha Escherichia coli cells/Escherichia coli GroES expressed in Escherichia coli BL21(DE3) cells assessed as inhibition of GroEL/ES-mediated dMDH refolding by reporter analysis.
Data set [2] is described as follows: Inhibition of Escherichia coli GroEL expressed in NEB-5-alpha Escherichia coli cells/Escherichia coli GroES expressed in Escherichia coli BL21(DE3) cells assessed as inhibition of GroEL/ES-mediated dRho refolding by reporter analysis.
Data set [3] is described as follows: Inhibition of human mitochondrial HSP60 expressed in Escherichia coli Rosetta 2 (DE3) cells/human mitochondrial HSP10 expressed in Escherichia coli Rosetta 2 (DE3) pLysS cells assessed as inhibition of […]-mediated dMDH refolding by reporter analysis. The data set is classed as mitochondria, Mitochondria.
Data set [4] is described as follows: Inhibition of refolded rhodanese reporter enzyme (unknown origin). Details: species or system Homo sapiens.
Data set [5] in a line: Inhibition of refolded MDH reporter enzyme (unknown origin). Details: species or system Homo sapiens.
Data set [6] has as its system HCT-116. Kind of data set: Cytotoxicity against human HCT-116 cells assessed as reduction in cell viability incubated for 48 hrs by AlamarBlue-based assay. The data set is classed as functional. The conditions noted are these: HCT-116, 48 h. (Alamar Blue is a resazurin reagent that responds to reducing activity.)
A further data set relates to DLD-1. Kind of data set: Cytotoxicity against human DLD-1 cells assessed as reduction in cell viability incubated for 48 hrs by AlamarBlue-based assay. In kind it is functional. The conditions noted are these: DLD-1, 48 h.
A further data set relates to HT-29. Kind of data set: Cytotoxicity against human HT-29 cells assessed as reduction in cell viability incubated for 48 hrs by AlamarBlue-based assay. In kind it is functional. The conditions noted are these: HT-29, 48 h.
In data set [7] the test system is HCT-116. Put plainly: Cytotoxicity against p53-/- human HCT-116 cells assessed as reduction in cell viability incubated for 48 hrs by AlamarBlue-based assay. In kind it is functional. The conditions noted are these: HCT-116, 48 h.
Data set [8] is described as follows: Cytotoxicity against human FHs74Int cells assessed as reduction in cell viability incubated for 48 hrs by AlamarBlue-based assay. In kind it is toxicity.
Data set [9] in a line: Cytotoxicity against human FHC cells assessed as reduction in cell viability incubated for 48 hrs by AlamarBlue-based assay. In kind it is toxicity.
A short description of data set [10]: Selectivity index, ratio of CC50 for cytotoxicity against non-cancerous cells to EC50 for cytotoxicity against human HCT-116 cells. In kind it is toxicity, cell-based. The conditions noted are these: non-cancerous cells versus HCT-116 cells, read-out: Ratio CC50/EC50.
The subject of data set [11] is HCT-116. Kind of data set: Cytotoxicity against human HCT-116 cells assessed as reduction in cell viability at 0.01 to 100 uM by Trypan Blue staining based analysis. The data set is classed as functional. The following applies: dose 0.01-100 µM, time 24-48 hrs, TDE = time-dependent effect.
The subject of data set [12] is HCT-116. Put plainly: Induction of apoptosis in human HCT-116 cells at 0.1 to 100 uM incubated for 48 hrs by AnnexinV-FITC/PI staining based flow cytometry. The data set is classed as functional, cell-based. The conditions noted are these: dose 0.1-100 µM.
The subject of data set [13] is HCT-116. Kind of data set: Induction of necrotic cell death in human HCT-116 cells at 0.1 to 100 uM incubated for 48 hrs by AnnexinV-FITC/PI staining based flow cytometry. The conditions noted are these: dose 0.1-100 µM. The data set is classed as functional. A general note: Flow cytometry measures light scatter and fluorescence of single cells or particles in a stream.

Data set [14] deals with HCT-116. Kind of data set: Inhibition of clonogenicity in human HCT-116 cells at > 1 uM incubated for 72 hrs followed by incubation in fresh medium for 7 days by crystal violet staining based analysis. The data set is classed as functional, cell-based.
The test system of data set [15] is HCT-116. Kind of data set: Inhibition of cell migration in human HCT-116 cells measured after 26 hrs by scratch wound healing assay. In kind it is functional, cell-based. The conditions noted are these: HCT-116, 26 h.
Data set [16] deals with HCT-116. Kind of data set: Cytotoxicity against human HCT-116 cells assessed as reduction in cell viability incubated for 48 hrs by AlamarBlue-based assay relative to control. In kind it is functional.
Data set [17] has as its system HCT-116. Put plainly: Cytotoxicity against human HCT-116 cells assessed as reduction in cell viability incubated for 72 hrs by AlamarBlue-based assay relative to control. The data set is classed as functional.
Another data set relates to Escherichia coli. Put plainly: Inhibition of Escherichia coli GroEL expressed in NEB-5-alpha Escherichia coli cells/Escherichia coli GroES expressed in Escherichia coli BL21(DE3) cells assessed as inhibition of GroEL/ES-mediated dMDH refolding measured after 24 hrs dialysis period by reporter analysis.

For orientation: IC50 means the concentration needed to halve the response being measured. A word on the EC50: it is the midpoint of the concentration-response curve. For orientation: CC50 means the concentration giving 50% cytotoxicity. Regarding `O=C(/C=C/c1cccc([N+](=O)[O-])c1)c1ccc(NC(=O)c2cccs2)cc1`, the 50% inhibitory concentration (IC50) was 0.41 µM in data set [1]; 1.5 µM in data set [2]; 2.2 µM in data set [3]; over 100 µM in data set [4]; over 63 µM in data set [5]. For the same compound, the concentration for a half-maximal effect (EC50) came to 2.6 µM in the data set with HCT-116 [6]; 11 µM in the data set on DLD-1; 2.5 µM with HT-29; 2.5 µM in the data set on HCT-116 [7]; 13 µM in the data set on HCT-116 [15]. The results for the CC50 at 48 h in data set [8] and in data set [9] were 24 µM and 73 µM, respectively. In addition, in [10], the selectivity ratio worked out at 19. Further, the Activity entry in the data set on HCT-116 [11] is “Tde”; in the data set on HCT-116 [16], 100%. Further, the result in the data set with HCT-116 [12] and in the data set on HCT-116 [13] was Active. Moreover, in the data set on HCT-116 [14], the inhibition entry is “Active”.

For the compound `O=C(/C=C/c1cccc([N+](=O)[O-])c1)c1ccc(NC(=O)c2ccco2)cc1`, the IC50 in data set [1] was 0.73 µM; in data set [2], 2.2 µM; in data set [3], 2.5 µM; in [4], over 100 µM; in data set [5] it was over 63 µM. For the same compound, the EC50 is 3.4 µM in the data set with HCT-116 [6], 22 µM with DLD-1, 3.5 µM in the data set on HT-29 and 4.1 µM in the data set on HCT-116 [7]. For the same compound, the CC50 at 48 h is 54 µM in data set [8] and over 100 µM in data set [9]. In data set [10], the selectivity ratio came out at 23. Also, the Activity in the data set on HCT-116 [17] is 100%; in the data set with HCT-116 [11], “Tde”. Further, the outcome with HCT-116 [12] and in the data set with HCT-116 [13] was Active. In addition, the inhibition result with HCT-116 [14] and with Escherichia coli was “Active” in each case.

Take `O=C(/C=C/c1ccc([N+](=O)[O-])cc1)c1ccc(O)c(O)c1`: the IC50 in data set [1] is 2 µM; in data set [2], 1.3 µM; in [3] it was 6.2 µM; in [4] it was 45 µM; in data set [5] it was over 63 µM. Further, the EC50 in the data set with HCT-116 [6] is 5.8 µM; in the data set with DLD-1, 9.6 µM; in the data set on HT-29, 8.2 µM; in the data set on HCT-116 [7], 6.1 µM. For the same compound, the figures for the CC50 at 48 h in data set [8] and in data set [9] were 11 µM and 28 µM, respectively. The selectivity ratio in data set [10] amounted to 3.4.

With `CC(=O)Nc1ccc(C(=O)/C=C/c2ccccc2)cc1`, the IC50 in data set [1] was 9.4 µM; in data set [2], 40 µM; in data set [3], 14 µM; in data set [4] it was over 100 µM; in data set [5], over 63 µM. For the same compound, the EC50 with HCT-116 [6] came to 11 µM; with DLD-1, 28 µM; in the data set with HT-29 it was 13 µM; in the data set with HCT-116 [7], 11 µM. For the same compound, the CC50 at 48 h in data set [8] came out at 58 µM; in data set [9] it was 86 µM. Also, the selectivity ratio in data set [10] was 6.7.

Source of the values: ChEMBL document CHEMBL5150040, “Bis-aryl-α,β-unsaturated ketone (ABK) chaperonin inhibitors exhibit selective cytotoxicity to colorectal cancer cells that correlates with levels of aberrant HSP60 in the cytosol” (Bioorg Med Chem, 2022).
